According to patent US9193731B2, “Antimicrobial compounds and methods of making and using the same” (Melinta Therapeutics, Inc., priority 2009, dated 2015):

Tested on: Escherichia coli strain ATCC25922
Assay: standard microdilution assay to determine minimum inhibitory concentrations (MICs)
Format: cell-based
Details: for E. coli ATCC25922 MIC: Escherichia coli strain ATCC25922, microdilution
Method in brief: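 E. coli strain ATCC25922 tested per CLSI microdilution methodology (about 100 microliters per well) to find minimum inhibitory concentrations. Activity scored categorically at a 16 micrograms/ml threshold.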

N=C(N)NCCCNCc1ccc(-n2cc3cc(-c4ccc(OC(F)(F)F)c(CCCCN)c4)[nH]c3nc2=O)cc1 [Compound 2072a]
E. coli ATCC25922 MIC: + (a “+” indicates that the compound has an MIC value of 16 micrograms/ml or less)

N=C(N)NCCCNCc1ccc(-n2cc3cc(-c4cc(CCCCN)ccc4Cl)[nH]c3nc2=O)cc1 [Compound 2073a]
E. coli ATCC25922 MIC: + (a “+” indicates that the compound has an MIC value of 16 micrograms/ml or less)

N=C(N)NCCCNCc1ccc(-n2cc3cc(-c4cc(CCCCN)cc(OC(F)F)c4)[nH]c3nc2=O)cc1 [Compound 2074a]
E. coli ATCC25922 MIC: + (a “+” indicates that the compound has an MIC value of 16 micrograms/ml or less)

N=C(N)NCCCNCc1ccc(-n2cc3cc(-c4cccc(C(CCCN)C(F)(F)F)c4)[nH]c3nc2=O)cc1 (centres unmarked) [Compound 2075a]
E. coli ATCC25922 MIC: + (a “+” indicates that the compound has an MIC value of 16 micrograms/ml or less)

N=C(N)NCCCNCc1ccc(-n2cc3cc(-c4cc(OC(F)(F)F)cc([S+]([O-])CCCN)c4)[nH]c3nc2=O)cc1 (centres unmarked) [Compound 2076a]
E. coli ATCC25922 MIC: + (a “+” indicates that the compound has an MIC value of 16 micrograms/ml or less)

N=C(N)NCCC(NCc1ccc(-n2cc3cc(-c4cc(CCCCN)cc(OC(F)(F)F)c4)[nH]c3nc2=O)cc1)C(F)(F)F (centres unmarked) [Compound 2078a]
E. coli ATCC25922 MIC: + (a “+” indicates that the compound has an MIC value of 16 micrograms/ml or less)

N=C(N)NCCCNCc1ccc(-n2cc3cc(-c4cc(Br)cc(CCCCN)c4)[nH]c3nc2=O)cc1 [Compound 2079a]
E. coli ATCC25922 MIC: + (a “+” indicates that the compound has an MIC value of 16 micrograms/ml or less)

NCCCc1cccc(-c2cc3cn(-c4ccc(C(N)C(F)(F)F)cc4)c(=O)nc3[nH]2)c1 (centres unmarked) [Compound 2080a]
MIC (Escherichia coli, ATCC25922, Escherichia coli strain ATCC25922, microdilution, read-out: E. coli ATCC25922 MIC): > 16 µg/mL

N=C(N)NCCCNC(c1ccc(-n2cc3cc(-c4cc(CCCCN)cc(OC(F)(F)F)c4)[nH]c3nc2=O)cc1)C(F)(F)F (centres unmarked) [Compound 2081a]
E. coli ATCC25922 MIC: + (a “+” indicates that the compound has an MIC value of 16 micrograms/ml or less)

N=C(N)NCCCCc1cc(OC(F)(F)F)cc(-c2cc3cn(-c4ccc(C(NCCCNC(=N)N)C(F)(F)F)cc4)c(=O)nc3[nH]2)c1 (centres unmarked) [Compound 2082a]
E. coli ATCC25922 MIC: + (a “+” indicates that the compound has an MIC value of 16 micrograms/ml or less)

CSCc1cc(CCCCN)cc(-c2cc3cn(-c4ccc(CNCCCNC(=N)N)cc4)c(=O)nc3[nH]2)c1 [Compound 2083a]
E. coli ATCC25922 MIC: + (a “+” indicates that the compound has an MIC value of 16 micrograms/ml or less)

N#Cc1cc(CCCCN)cc(-c2cc3cn(-c4ccc(CNCCCNC(=N)N)cc4)c(=O)nc3[nH]2)c1 [Compound 2084a]
E. coli ATCC25922 MIC: + (a “+” indicates that the compound has an MIC value of 16 micrograms/ml or less)

N=C(N)NCCCNCc1ccc(-n2cc3cc(-c4cc(F)cc(CCCCN)c4)[nH]c3nc2=O)cc1 [Compound 2085a]
E. coli ATCC25922 MIC: + (a “+” indicates that the compound has an MIC value of 16 micrograms/ml or less)

N=C(N)NCCCNCc1ccc(-n2cc3cc(-c4cc(CCCCN)cc(C(F)F)c4)[nH]c3nc2=O)cc1 [Compound 2087a]
E. coli ATCC25922 MIC: + (a “+” indicates that the compound has an MIC value of 16 micrograms/ml or less)

CS(=O)(=O)Cc1cc(CCCCN)cc(-c2cc3cn(-c4ccc(CNCCCNC(=N)N)cc4)c(=O)nc3[nH]2)c1 [Compound 2088a]
E. coli ATCC25922 MIC: + (a “+” indicates that the compound has an MIC value of 16 micrograms/ml or less)

N=C(N)NCCCNCc1ccc(-n2cc3cc(-c4ccc(Cl)c(CCCCN)c4)[nH]c3nc2=O)cc1 [Compound 2089a]
E. coli ATCC25922 MIC: + (a “+” indicates that the compound has an MIC value of 16 micrograms/ml or less)

CS(=O)(=O)NCc1cc(CCCCN)cc(-c2cc3cn(-c4ccc(CNCCCNC(=N)N)cc4)c(=O)nc3[nH]2)c1 [Compound 2090a]
E. coli ATCC25922 MIC: + (a “+” indicates that the compound has an MIC value of 16 micrograms/ml or less)

N=C(N)NCCCNCc1ccc(-n2cc3cc(-c4cc(CCCCN)ccc4F)[nH]c3nc2=O)cc1 [Compound 2091a]
E. coli ATCC25922 MIC: + (a “+” indicates that the compound has an MIC value of 16 micrograms/ml or less)

N=C(N)NCCCNCc1ccc(-n2cc3cc(-c4cc(CCCCN)cc(S(N)(=O)=O)c4)[nH]c3nc2=O)cc1 [Compound 2092a]
E. coli ATCC25922 MIC: + (a “+” indicates that the compound has an MIC value of 16 micrograms/ml or less)

CC(CCN)c1cc(-c2cc3cn(-c4ccc(CNCCCNC(=N)N)cc4)c(=O)nc3[nH]2)ccc1Cl (centres unmarked) [Compound 2093a]
E. coli ATCC25922 MIC: + (a “+” indicates that the compound has an MIC value of 16 micrograms/ml or less)
